Tested on: 885724-159-R-J1-PDC complex spheroid viability
Experiment: Anticancer human tumor 885724-159-R-J1-PDC patient-derived pancreatic adenocarcinoma cell line growth inhibition [GQUAD]
Conditions: for IC50: curve of first compound; for viability, T/C: stronger effect = lower value
Description: DNA G-quadruplex Stabilizer Agents in Combinations in Complex Spheroids
A high-throughput screen of multi-cell type tumor spheroids was designed to identify active combinations of DNA G-quadruplex stabilizer agents and targeted small molecules. Complex spheroids include a stromal component modeled by human endothelial cells (HUVEC) and fibroblasts modeled by human mesenchymal stem cells (MSCs). The concentration ranges selected for each drug and investigational agent were based upon clinically achievable concentrations if the clinical Cmax of the agent was known.
Compounds. The drugs and investigational agents: pidnarulex (CX-5461; NSC782164), APTO-253 (NSC789042), BRACO-19 (NSC847499), peposertib (NSC802822), ceralasertib (NSC780249), elimusertib (NSC800525), camonsertib (NSC841442), AZD-1390 (NSC803789), olaparib (NSC753686), talazoparib (NSC767125), ART-558 (NSC835418), sotorasib (NSC818433), MRTX-1133 (NSC836407), SN-38 (NSC673596), topotecan (NSC609699), etoposide (NSC141540), doxorubicin (NSC123127), gemcitabine (NSC613327), 5-fluorouracil (NSC19893), paclitaxel (NSC125973), vemurafenib (NSC761431), panobinostat (NSC761190), R-306465 (JNJ-16241199; NSC773264), adavosertib (NSC754352), TP-3654 (NSC805149), carboplatin (NSC241240), KSQ-4279 (NSC840948), and staurosporine (NSC755774) were obtained from the National Cancer Institute (NCI) Developmental Therapeutics Program Chemical Repository (34). The FDA-approved anticancer drug set is available from the NCI Developmental Therapeutics Program. […] The stock solutions were prepared in dimethyl sulfoxide (DMSO, Sigma-Aldrich, St. Louis, MO, cat. D2650) at 800-fold the tested concentration and stored at -70 degrees C prior to their use. All drugs and investigational agents were tested over a range starting from a high concentration at or near the clinical Cmax and decreasing in half-log increments. If the clinical Cmax for an agent had not been determined, the highest concentration tested was 10 microM.
2.3 Cell Culture. All cells were maintained in an incubator at 37 degrees C and 5% CO2 with 95% humidity. The PDC lines were cultured according to standard operating procedures established by the NCI PDMR. All PDCs were thawed and cultured in Matrigel-coated flasks prepared with a working solution of 1X Ham's F-12 nutrient mix, without supplementation (Invitrogen, cat. 11765054), 100 U/mL penicillin-streptomycin (Invitrogen, cat. 15140122), and 2.5% Matrigel (Corning Inc., cat. 354248) for the first three passages. The 857933-349-R-J2-PDC line was cultured in 6C/Colon 1B media, which includes advanced DMEM/F-12 (Thermo Fisher Scientific, cat. 12634028), 10 mM HEPES (Thermo Fisher Scientific, cat. 15630080), 1X GlutaMAX supplement (Thermo Fisher Scientific, cat. 35050061), 0.1 mg/mL primocin (InvivoGen, cat. ant-pm-2), 10% defined fetal bovine serum, heat inactivated (HyClone Laboratories Inc., cat. SH30070.03HI), 50% L-WRN conditioned media (ATCC, cat. CRL-3276), 1.25 mM N-Acetyl-L-cysteine (Sigma-Aldrich, cat. A9165), 10 mM nicotinamide (Sigma-Aldrich, cat. N0636), 1X B-27 supplement (Thermo Fisher Scientific, cat. 17504044), 1X N-2 supplement (Thermo Fisher Scientific, cat. 17502048), 10 microM Y-27632 dihydrochloride (Tocris Bioscience, cat. 1254), and 50 ng/mL human EGF recombinant protein (Thermo Fisher Scientific, cat. PHG0311). The 485176-168-R4-J1-PDC line was cultured in Panc media, which includes all 6C/Colon 1B media components plus 100 ng/mL human FGF-10 (Thermo Fisher Scientific, cat. 100-26), 500 nM SB-431542 (Selleckchem, cat. S1067), and gastrin (Tocris, cat. 3006).
[…]
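Note: spheroids exposed to agents for seven days before readout.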
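Throughout, for viability, T/C: percent of vehicle control viability where 100% = DMSO wells.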

Which results are given for `O=C(c1cc(Cc2n[nH]c(=O)c3ccccc23)ccc1F)N1CCN(C(=O)C2CC2)CC1` + CN(C)c1ccc(Nc2c3ccc(NC(=O)CCN4CCCC4)cc3nc3cc(NC(=O)CCN4CCCC4)ccc23)cc1?
IC50 (second compound 0.0316 µM): > 10 µM; IC50 (second compound 0.1 µM): > 10 µM; IC50 (second compound 0.316 µM): > 10 µM; IC50 (second compound 1 µM): > 10 µM; IC50 (second compound 3.16 µM): > 10 µM; IC50 (second compound 10 µM): > 10 µM; viability, T/C (second compound 0.0316 µM, first compound 0.0316 µM): 117%; viability, T/C (second compound 0.0316 µM, first compound 0.1 µM): 93.1%; viability, T/C (second compound 0.0316 µM, first compound 0.316 µM): 89.7%; viability, T/C (second compound 0.0316 µM, first compound 1 µM): 92.4%; viability, T/C (second compound 0.0316 µM, first compound 3.16 µM): 95.3%; viability, T/C (second compound 0.0316 µM, first compound 10 µM): 88.8%; viability, T/C (second compound 0.1 µM, first compound 0.0316 µM): 101%; viability, T/C (second compound 0.1 µM, first compound 0.1 µM): 100%; viability, T/C (second compound 0.1 µM, first compound 0.316 µM): 103%; viability, T/C (second compound 0.1 µM, first compound 1 µM): 106%; viability, T/C (second compound 0.1 µM, first compound 3.16 µM): 85.3%; viability, T/C (second compound 0.1 µM, first compound 10 µM): 72.5%; viability, T/C (second compound 0.316 µM, first compound 0.0316 µM): 90.6%; viability, T/C (second compound 0.316 µM, first compound 0.1 µM): 88.1%; viability, T/C (second compound 0.316 µM, first compound 0.316 µM): 105%; viability, T/C (second compound 0.316 µM, first compound 1 µM): 93.5%; viability, T/C (second compound 0.316 µM, first compound 3.16 µM): 97.1%; viability, T/C (second compound 0.316 µM, first compound 10 µM): 80%; viability, T/C (second compound 1 µM, first compound 0.0316 µM): 83.3%; viability, T/C (second compound 1 µM, first compound 0.1 µM): 80%; viability, T/C (second compound 1 µM, first compound 0.316 µM): 87%; viability, T/C (second compound 1 µM, first compound 1 µM): 73.3%; viability, T/C (second compound 1 µM, first compound 3.16 µM): 76.7%; viability, T/C (second compound 1 µM, first compound 10 µM): 63.8%; viability, T/C (second compound 3.16 µM, first compound 0.0316 µM): 79.4%; viability, T/C (second compound 3.16 µM, first compound 0.1 µM): 65.2%; viability, T/C (second compound 3.16 µM, first compound 0.316 µM): 84.4%; viability, T/C (second compound 3.16 µM, first compound 1 µM): 73.2%; viability, T/C (second compound 3.16 µM, first compound 3.16 µM): 70.5%; viability, T/C (second compound 3.16 µM, first compound 10 µM): 69.5%; viability, T/C (second compound 10 µM, first compound 0.0316 µM): 72.1%; viability, T/C (second compound 10 µM, first compound 0.1 µM): 74.2%; viability, T/C (second compound 10 µM, first compound 0.316 µM): 69.9%; viability, T/C (second compound 10 µM, first compound 1 µM): 75.9%; viability, T/C (second compound 10 µM, first compound 3.16 µM): 90.1%; viability, T/C (second compound 10 µM, first compound 10 µM): 69.6%

— PubChem BioAssay AID2060502 (Molecular Pharmacology Branch, DTP, NCI, 2025)
